{"source": "paper PMC9225722", "about": "“Synthesis and biological evaluation of thieno[3,2-c]pyrazol-3-amine derivatives as potent glycogen synthase kinase 3β inhibitors for Alzheimer’s disease” (Journal of Enzyme Inhibition and Medicinal Chemistry, 2022)", "type_in_all_cases": "cell-based, human", "key": {"SH-SY5Y cells": {"test_system": "SH-SY5Y cells", "experiment": "Neuronal neurite outgrowth assay", "conditions": "10 μM, 72 h, compared with RA (10 μM)", "from_the_text": "Differentiated SH-SY5Y cells express neurogenesis-related markers, including growth-associated protein 43 (GAP43), the N-myc gene as well as neuronal polarity marker microtubule-associated protein 2 (MAP-2). GAP43 is an intrinsic determinant of neuronal development and plasticity which regulates axon growth and regeneration[68]^,[69]. N-myc is indispensable to normal neurogenesis in the expansion of progenitor cell populations. MAP-2 regulates neuronal development, structural stability and synaptic plasticity through the formation of axonal and dendritic processes[71]^,[72]. Inhibition of GSK-3β could induce neurogenesis and promote the expressions of the neurogenesis-related markers. Firstly, we used SH-SY5Y cells to study the effect of 16b on neurite outgrowth, using retinoic acid (RA) as a positive control. After incubating with 16b (10 μM) or RA (10 μM) for 72 h, the morphology of differentiated neuronal neurite outgrowth were obtained.\nFigure 8. (A) Effect of 16b (10 μM) on neurite outgrowth (72 h). Red arrows indicated cells bearing neurites. […]\nSH-SY5Y cells (5 × 10^3) were planted in 96-well plates and cultivated at 37 °C for 24 h. […] After the SH-SY5Y cells were cultivated for 24 h, total RNA was extracted, and quantitative RT-PCR was performed according to the previously reported method."}, "[1]": {"test_system": "phosphorylation of GSK-3β at Ser9", "experiment": "Western blot of p-GSK-3β (Ser9) in SH-SY5Y cells", "conditions": "2.5 h, control 0.33", "from_the_text": "GSK-3β is activated by phosphorylation at Tyr216 and is inhibited by phosphorylation at Ser9 [48]. As one of the substrates of Akt (protein kinase B), GSK-3 can inhibit Akt[49]. The inhibition of GSK-3β increases the p-Akt expression and activates the PI3K/Akt pathway, and that, in turn, phosphorylates the GSK-3β at the Ser9 site[50]^,[51]. […] As shown in Figure 6(A), LiCl greatly promoted GSK-3β phosphorylation at Ser9 (p-GSK-3β/GAPDH: 0.60 vs 0.33). […] Therefore, in cellular level, compound 16b was confirmed to have a direct effect on GSK-3β.\nFigure 6. (A) The effect of 16b on phosphorylation of GSK-3β at Ser9; (B) the effect of 16b on β-catenin abundance. Protein expressions were detected by immunoblot analysis with a specific antibody. Values are reported as the mean ± SD of three independent experiments. *p < 0.05, **p < 0.01, ***p < 0.001 vs control.\nSH-SY5Y cells (1 × 10^6) were seeded in 12-well plates (Corning, Los Altos, MA, USA) and incubated with compound 16b or LiCl at the indicated concentrations for 2.5 h at 37 °C in 5% CO2. At the end of incubation, cells were lysed by addition of ice-cold RIPA buffer containing a protease inhibitor cocktail. The protein quantification was determined using a BCA protein assay kit (Jiangsu KeyGEN BioTECH Co., Ltd., Nanjing, China). Cellular lysates were mixed with an equal volume of SDS (sodium dodecyl sulfate) loading buffer (Jiangsu KeyGEN BioTECH Co., Ltd., Nanjing, China) and separated by electrophoresis (Bio-rad Power Supplies Basic, Shanghai, China) in polyacrylamide gel. Proteins were transferred from acrylamide gels to nitrocellulose membranes and blocked in a blocking buffer (PBS, 5% non-fat milk) for 1.5 to 2 h at 20 °C. […] The blots were washed by TBST for 20 min and detected with ECL chemiluminescent reagent (Jiangsu KeyGEN BioTECH Co., Ltd., Nanjing, China) for 3 min. Pixel intensity was quantitated using gel imaging system (SYNGENE G:BOX/iChemi XR5, ISS, San Diego, CA, US) and Gel-Pro32 software (Media Cybernetics, Bethesda, MD, USA). […]"}, "[2]": {"test_system": "tau phosphorylation at Ser396", "experiment": "Inhibition of Aβ-induced tau hyperphosphorylation (Western blot) in SH-SY5Y cells", "conditions": "20 μM Aβ25-35 stimulated (Aβ25-35 alone 0.83)", "procedure": "GSK-3β phosphorylates tau at sites (Ser199, Ser396, and Ser443), and the hyperphosphorylated tau aggregate into NFTs in AD[63]. Inhibition of GSK-3β could reduce tau hyperphosphorylation. Therefore, the cell-based assay examining Aβ-induced tau phosphorylation at Ser396 represents a direct functional assay to measure the cellular activity of GSK-3β inhibitors. To investigate the effect of 16b on tau phosphorylation, Western blot analysis was carried out to check Aβ-induced tau protein hyperphosphorylation at Ser396 in SH-SY5Y cells, using LiCl as the control. […] At the concentration of 5 μM, 10 μM and 20 μM, 16b decreased the phosphorylation tau level to 0.70, 0.52, 0.40, respectively.\nFigure 7. Inhibition of Aβ-induced tau phosphorylation by 16b in SH-SY5Y cells. Values are reported as the mean ± SD of three independent experiments. *p < 0.05, **p < 0.01, ***p < 0.001 vs control.\nSH-SY5Y cells were seeded in 12-well plates until 80% confluence, serum-deprived for 12 h. Cells were pre-incubated with compound 16b or LiCl for 1 h, thereafter stimulated with Aβ25–35 (Sigma) for another 6 h. According to the previously reported method[64]^,[75], the phosphorylated tau was determined."}}, "data": [{"smiles": "CC(C)C(=O)Nc1n[nH]c2cc(-c3cccnc3)sc12", "note": "[Compound 16b, N-(5-(pyridin-3-yl)-1H-thieno[3,2-c]pyrazol-3-yl)isobutyramide]", "values": [{"measurement": "neurite outgrowth of SH-SY5Y cells", "setting": "SH-SY5Y cells", "value": "substantial ability in inducing SH-SY5Y cells neurite outgrowth"}, {"measurement": "p-GSK-3β/GAPDH ratio (Ser9)", "setting": "[1]; 10 μM", "value": 0.41}, {"measurement": "p-GSK-3β/GAPDH ratio (Ser9)", "setting": "[1]; 20 μM", "value": 0.50}, {"measurement": "p-tau/GAPDH ratio (Ser396)", "setting": "[2]; 5 μM", "value": 0.70}, {"measurement": "p-tau/GAPDH ratio (Ser396)", "setting": "[2]; 10 μM", "value": 0.52}, {"measurement": "p-tau/GAPDH ratio (Ser396)", "setting": "[2]; 20 μM", "value": 0.40}]}]}
